According to patent US10350176B2 (priority 2013, dated 2019):
Like-named read-outs stand apart in the source and are kept apart here.

Key:
[1] = test system: Leishmania major in promastigote form; assay: Promastigote growth inhibition assay (CellTiter-Blue); assay type: cell-based; conditions: 48 hours incubation; number of viable promastigotes reduced by 50%; read-out: L. major, in promastigote form (IC50)
Description: Antiparasitic activity in culture of promastigotes (insect form) was measured using a standard microdiluting method, determining the minimum inhibitory concentration (MIC) of the test sample, which leads to inhibition of parasite growth.
For promastigote growth inhibition assays the subculture 2 of L. major was cultured in Schneider's insect medium (Sigma, St. Louis, Mo., cat. No. S0146) supplemented with 50 μm/ml gentamicin (Sigma, St. Louis, Mo., cat. No. G1272), 63.7 μg/ml penicillin G (Sigma, St. Louis, Mo., cat. No. PENK), 100 μg/ml streptomycin (Sigma, St. Louis, Mo., cat. no. S6501), 2% human urine and 10% heat-inactivated fetal bovine serum (Sigma, St. Louis, Mo., cat. No. F2442).
Leishmania promastigotes in the logarithmic growth phase were dispensed into black 384-well plates (Corning, New York, N.Y., cat. No. 3571) at a concentration of 15,000 parasites/μl/well using a Multidrop Combi instrument (Thermo Fisher Scientific Inc., Waltham, Mass.). […] The metabolic capacity of the parasite was measured after 2.5 hours of incubation using the CellTiter-Blue® Reagent (Promega Corporation, Madison, Wis., cat. No. G8082) using EnVision Multilabel Reader (PerkinElmer Inc., Waltham, Mass.). Data were analyzed using non-linear regression (log (inhibitor) vs. response-variable slope). […]

[2] = test system: L. major, antimony salts resistant, in promastigote form; assay: Promastigote growth inhibition assay, strain resistant to antimony salts; assay type: cell-based, Leishmania major; conditions: 48 hours incubation
Description: Leishmania promastigotes in the logarithmic growth phase were dispensed into black 384-well plates (Corning, New York, N.Y., cat. No. 3571) at a concentration of 15,000 parasites/μl/well using a Multidrop Combi instrument (Thermo Fisher Scientific Inc., Waltham, Mass.). Immediately thereafter DPI (1 nM-500 nM) or amphotericin B (20 nM-10 μM) were added using “pitool” connected to JANUS® Automated Workstation (PerkinElmer Inc., Waltham, Mass.) and incubated for 48 hours. The metabolic capacity of the parasite was measured after 2.5 hours of incubation using the CellTiter-Blue® Reagent (Promega Corporation, Madison, Wis., cat. No. G8082) using EnVision Multilabel Reader (PerkinElmer Inc., Waltham, Mass.). Data were analyzed using non-linear regression (log (inhibitor) vs. response-variable slope). Preparation of the graphs and IC50 calculation were performed using GraphPad Prism 5 software (GraphPad Software, USA). The IC50 value was calculated by non-linear regression method as the concentration of DPI in which the number of viable promastigotes was reduced by 50% (values given below in Table 1).

[3] = test system: Leishmania major in amastigote form; assay: Cytotoxic effect on intracellular amastigotes in macrophages (flow cytometry, cell smears); assay type: cell-based; conditions: concentration at which number of infected macrophages decreased by 50%; 48 hours co-incubation
Description: Macrophage precursors were isolated from bone marrow and incubated for 7 days at 37° C. and 5% CO2 in DMEM supplemented with supernatant of L929 cells (20 percent by volume) containing M-CSF. After differentiation the macrophages were infected with E-GFP-L. major in stationary phase of growth at a ratio of 1:10. Then the macrophages were incubated in DMEM supplemented with the supernatant of L929 cells (20% volume) containing M-CSF at 37° C. and 5% CO2. After 24 hours, the medium containing the extracellular parasites was discarded and the plates were washed 3 times with HBSS medium (Hanks' Balanced Salt Solution, Sigma, St. Louis, Mo., cat. No. H9269). […]
The samples were analyzed on a FACSCalibur flow cytometer (Becton, Dickinson and Company, Franklin Lakes, N.J.) using CellQuest Pro software (Becton, Dickinson and Company, Franklin Lakes, N.J.). […] The results were measured for 10,000 macrophages in the first experiment and for 20,000 macrophages in the second experiment. […]
Smears were stained with Giemsa (Sigma, St. Louis, Mo., cat. No. 11700) and analysed by fluorescence microscopy Leica6000DM (Leica Microsystems GmbH, Wetzlar, Germany) at a magnification 400×. The total number of parasites in 500 macrophages was determined. […]

Leishmania major = conditions: primary screening, library compounds at 1 μM
Description: The compounds were screened for growth inhibition of the parasite Leishmania major.
The compounds were reformatted into 384-well polypropylene plates (Corning, cat. No. 3657) at a final concentration of 1 μM in DMSO and used to screen the growth inhibition of the parasite Leishmania major.

[4] = test system: CCD 841 (intestinal epithelial cells); conditions: DPI 9.8 nM-1.25 μM; 48 hours incubation
Description: (§1) Human cells CCD 841 (intestinal epithelial cells) and MRC5 (fetal lung fibroblasts) in appropriate growth media were dispensed into black 384-well plates (Corning, cat. No. 3571) at a density of 15,000 cells/25 μl/well using a Multidrop Combi (Thermo Scientific). After 48 hours incubation at 37° C. and 5% CO2, cell viability was determined using a commercial assay CellTiter Blue Cell Viability Assay (Promega, cat. No. G8082). […] Fluorescence intensity was measured by the detector (reader) EnVision (Perkin Elmer), and measured data were analysed using the software Prism5 (GraphPad Software, Inc.).

[5] = test system: MRC5 (fetal lung fibroblasts); conditions: DPI 9.8 nM-1.25 μM; 48 hours incubation
Description: as §1

Plasmodium falciparum = conditions: kills Plasmodium falciparum; Yuan et al. Nat Chem Biol 2009; cited from earlier work

Row | Structure (SMILES) | IC50 [1] | IC50 [2] | L. major, in intracellular amastigote form (LD50, μM) [3] | growth inhibition of the parasite Leishmania major (Leishmania major) | growth inhibition of the parasite Leishmania major (Leishmania major; listed as diphenyleneiodonium (DPI)) | viability of human CCD 841 cells [4] | viability of human MRC5 cells [5] | IC50 (Plasmodium falciparum)
1 | C[C@@H]1[C@H](O)[C@@H](C)/C=C/C=C/C=C/C=C/C=C/C=C/C=C/[C@H](O[C@@H]2O[C@H](C)[C@@H](O)[C@H](N)[C@@H]2O)C[C@@H]2O[C@](O)(C[C@@H](O)C[C@@H](O)[C@H](O)CC[C@@H](O)C[C@@H](O)CC(=O)O[C@H]1C)C[C@H](O)[C@H]2C(=O)O [amphotericin B, reference compound] | 39 nM | 43 nM | 0.143 µM | – | – | – | – | –
2 | c1ccc2c(c1)[I+]c1ccccc1-2 [DPI, [1,1′-biphenyl]-2,2′-diyliodonium] | 10 nM | 15 nM | 0.066 µM | potent inhibitor of the growth of Leishmania major | effective inhibitor | no negative effect on the viability | no negative effect on the viability | 0.06 to 1 nM
